Measured values taken from US11180474B2 (BRISTOL-MYERS SQUIBB COMPANY, priority 2016, dated 2021).

Assays:
[1] = target: T1, human TLR8 (Homo sapiens, UniProt Q9NR97); test: TLR8 inhibition reporter assay (HEK-Blue cells, SEAP reporter, R848 stimulation); format: cell-based; conditions: HEK-Blue cells overexpressing human TLR8, R848 15.9 μM
T1 construct: host or cells: HEK-Blue cells
T1 sequence (Q9NR97 27-1041): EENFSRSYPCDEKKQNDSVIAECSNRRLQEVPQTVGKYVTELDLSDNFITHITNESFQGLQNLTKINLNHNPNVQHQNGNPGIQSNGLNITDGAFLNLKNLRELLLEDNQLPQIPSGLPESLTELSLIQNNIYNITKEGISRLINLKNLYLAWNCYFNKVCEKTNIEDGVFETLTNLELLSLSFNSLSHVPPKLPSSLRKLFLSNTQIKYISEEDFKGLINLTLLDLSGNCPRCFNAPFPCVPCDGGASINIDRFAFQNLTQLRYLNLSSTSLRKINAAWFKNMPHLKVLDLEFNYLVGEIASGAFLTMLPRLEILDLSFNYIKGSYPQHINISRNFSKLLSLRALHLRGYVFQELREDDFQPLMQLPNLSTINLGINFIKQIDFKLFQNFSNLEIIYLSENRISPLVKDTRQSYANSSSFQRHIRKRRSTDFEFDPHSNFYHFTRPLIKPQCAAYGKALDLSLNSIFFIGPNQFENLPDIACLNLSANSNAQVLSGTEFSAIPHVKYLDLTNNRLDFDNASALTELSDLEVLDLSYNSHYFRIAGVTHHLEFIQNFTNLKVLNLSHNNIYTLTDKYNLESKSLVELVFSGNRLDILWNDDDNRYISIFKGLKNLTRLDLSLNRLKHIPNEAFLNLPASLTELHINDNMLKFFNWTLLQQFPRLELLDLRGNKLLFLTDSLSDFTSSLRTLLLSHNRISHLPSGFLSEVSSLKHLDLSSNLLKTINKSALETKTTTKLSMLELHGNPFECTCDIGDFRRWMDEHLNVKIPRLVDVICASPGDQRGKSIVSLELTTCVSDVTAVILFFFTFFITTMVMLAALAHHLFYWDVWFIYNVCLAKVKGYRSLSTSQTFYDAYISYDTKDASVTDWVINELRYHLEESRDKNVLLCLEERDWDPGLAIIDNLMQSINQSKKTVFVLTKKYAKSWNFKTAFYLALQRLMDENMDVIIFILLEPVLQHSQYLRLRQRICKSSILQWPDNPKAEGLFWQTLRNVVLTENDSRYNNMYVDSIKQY
How it was run: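 HEK-Blue reporter cells (15,000/well TLR7, 20,000 TLR8) exposed to compound over 0.05 nM–50 μM, agonist-stimulated (R848 for TLR8, gardiquimod for TLR7), 22 h at 37 °C, 5% CO2. SEAP read with HEK-Blue Detection; % inhibition relative to agonist-plus-DMSO and known-inhibitor controls.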

[2] = target: T2, human TLR9 (Homo sapiens, UniProt Q9NR96); test: TLR9 inhibition reporter assay (HEK-Blue cells, SEAP reporter, ODN2006 stimulation); format: cell-based; conditions: HEK-Blue cells overexpressing human TLR9, ODN2006 5 nM
T2 construct: host or cells: HEK-Blue cells
T2 sequence (Q9NR96 26-1032): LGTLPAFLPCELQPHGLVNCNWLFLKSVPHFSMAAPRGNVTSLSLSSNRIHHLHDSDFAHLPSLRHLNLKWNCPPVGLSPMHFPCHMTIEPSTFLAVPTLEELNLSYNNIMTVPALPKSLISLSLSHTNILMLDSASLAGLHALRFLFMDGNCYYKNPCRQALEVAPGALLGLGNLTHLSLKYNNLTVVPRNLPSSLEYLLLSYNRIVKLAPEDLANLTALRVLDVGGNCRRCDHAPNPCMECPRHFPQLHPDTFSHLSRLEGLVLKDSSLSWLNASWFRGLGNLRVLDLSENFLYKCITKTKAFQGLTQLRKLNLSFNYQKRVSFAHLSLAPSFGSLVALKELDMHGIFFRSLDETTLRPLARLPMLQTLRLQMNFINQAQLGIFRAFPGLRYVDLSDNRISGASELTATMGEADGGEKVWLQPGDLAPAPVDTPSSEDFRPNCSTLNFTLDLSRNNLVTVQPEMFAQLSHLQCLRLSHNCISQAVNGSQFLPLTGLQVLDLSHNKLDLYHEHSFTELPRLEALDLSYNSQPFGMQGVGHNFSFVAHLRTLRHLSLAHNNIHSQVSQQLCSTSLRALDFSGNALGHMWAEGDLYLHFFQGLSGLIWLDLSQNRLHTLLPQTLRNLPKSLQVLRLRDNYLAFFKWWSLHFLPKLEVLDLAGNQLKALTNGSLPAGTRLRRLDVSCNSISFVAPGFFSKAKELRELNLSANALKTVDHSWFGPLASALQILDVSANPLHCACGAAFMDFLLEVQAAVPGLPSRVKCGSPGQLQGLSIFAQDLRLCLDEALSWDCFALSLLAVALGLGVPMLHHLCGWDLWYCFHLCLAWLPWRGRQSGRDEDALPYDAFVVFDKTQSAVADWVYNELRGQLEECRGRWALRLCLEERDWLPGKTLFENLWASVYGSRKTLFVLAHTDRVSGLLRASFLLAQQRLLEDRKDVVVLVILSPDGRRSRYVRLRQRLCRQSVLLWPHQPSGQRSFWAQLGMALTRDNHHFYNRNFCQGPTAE
How it was run: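 Agonists used: gardiquimod 7.5 μM (TLR7), R848 15.9 μM (TLR8), ODN2006 5 nM (TLR9), added after 30 min room-temperature compound pre-treatment (0.05 nM–50 μM) of receptor-overexpressing HEK-Blue cells. SEAP reporter (NF-κB/AP-1 driven) read after 22 h at 37 °C; inhibition scaled between agonist+DMSO and reference-inhibitor wells.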

| SMILES | IC50 [1] | IC50 [2] |
| --- | --- | --- |
| COc1ccc(-c2[nH]c3ccc(C4CCN(CC(=O)NCCS(=O)(=O)O)CC4)cc3c2CC(F)(F)F)cc1OC [Example 386, 2-(2-(4-(2-(3,4-dimethoxyphenyl)-3-(2,2,2-trifluoroethyl)-1H-indol-5-yl)piperidin-1-yl)acetamido)ethane-1-sulfonic acid] | 0.59 µM | ≥ 50 µM |
| COc1ccc(-c2[nH]c3ccc(C4CCN(CC(=O)NCCCCN5CCCC5)CC4)cc3c2CC(F)(F)F)cc1OC [Example 388, 2-(4-(2-(3,4-dimethoxyphenyl)-3-(2,2,2-trifluoroethyl)-1H-indol-5-yl)piperidin-1-yl)-N-(4-(pyrrolidin-1-yl)butyl)acetamide] | 0.04 µM | 0.288 µM |
| COc1ccc(-c2[nH]c3ccc(C4CCN(CC(=O)N5CCN(C(C)C)CC5)CC4)cc3c2CC(F)(F)F)cc1OC [Example 362, 2-(4-(2-(3,4-dimethoxyphenyl)-3-(2,2,2-trifluoroethyl)-1H-indol-5-yl)piperidin-1-yl)-1-(4-isopropylpiperazin-1-yl)ethan-1-one] | 0.109 µM | 1.15 µM |
| COc1ccc(-c2[nH]c3ccc(C4CCNCC4(F)F)cc3c2C(C)C)cc1OC (centres unmarked) [Example 325, 5-(3,3-difluoropiperidin-4-yl)-2-(3,4-dimethoxyphenyl)-3-isopropyl-1H-indole] | 0.147 µM | ≥ 50 µM |
| COc1ccc(-c2[nH]c3ccc(C4CCN(C(=O)CCC(N)=O)CC4)cc3c2CC(F)(F)F)cc1OC [Example 333, 4-(4-(2-(3,4-dimethoxyphenyl)-3-(2,2,2-trifluoroethyl)-1H-indol-5-yl)piperidin-1-yl)-4-oxobutanamide] | 0.702 µM | ≥ 50 µM |
| COc1ccc(-c2[nH]c3ccc(C4CCN(C(=O)Cc5ccc(N(C)C)cc5)CC4)cc3c2CC(F)(F)F)cc1OC [Example 338, 1-(4-(2-(3,4-dimethoxyphenyl)-3-(2,2,2-trifluoroethyl)-1H-indol-5-yl)piperidin-1-yl)-2-(4-(dimethylamino)phenyl)ethan-1-one] | 1.46 µM | ≥ 50 µM |
| COc1ccc(-c2[nH]c3ccc(C4CCN(CC(=O)N(C)C)CC4)cc3c2CC(F)F)cc1OC [Example 400, 2-(4-(3-(2,2-difluoroethyl)-2-(3,4-dimethoxyphenyl)-1H-indol-5-yl)piperidin-1-yl)-N,N-dimethylacetamide] | 0.11 µM | 3.96 µM |
| COc1ccc(-c2[nH]c3ccc(C4CCN(CC(=O)NCCCN(C)C)CC4)cc3c2CC(F)(F)F)cc1OC [Example 382, 2-(4-(2-(3,4-dimethoxyphenyl)-3-(2,2,2-trifluoroethyl)-1H-indol-5-yl)piperidin-1-yl)-N-(3-(dimethylamino)propyl)acetamide] | 0.062 µM | 0.555 µM |
| COc1ccc(-c2[nH]c3ccc(C4CCNCC4F)cc3c2C(C)C)cc1OC (single isomer, unassigned) [Example 324, 2-(3,4-dimethoxyphenyl)-5-(3-fluoropiperidin-4-yl)-3-isopropyl-1H-indole] | 0.02 µM | 3.53 µM |
| COc1ccc(-c2[nH]c3ccc(C4CCN(CC(=O)N5CCC[C@@H]5CO)CC4)cc3c2CC(F)(F)F)cc1OC [Example 371, (R)-2-(4-(2-(3,4-dimethoxyphenyl)-3-(2,2,2-trifluoroethyl)-1H-indol-5-yl)piperidin-1-yl)-1-(2-(hydroxymethyl)pyrrolidin-1-yl)ethan-1-one] | 0.052 µM | 2.46 µM |
| COc1ccc(-c2[nH]c3ccc(C4CCN(CC(=O)NCCN5CCCC5)CC4)cc3c2CC(F)(F)F)cc1OC [Example 375, 2-(4-(2-(3,4-dimethoxyphenyl)-3-(2,2,2-trifluoroethyl)-1H-indol-5-yl)piperidin-1-yl)-N-(2-(pyrrolidin-1-yl)ethyl)acetamide] | 0.117 µM | 0.701 µM |
| COc1ccc(-c2[nH]c3ccc(C4CCN(C(=O)CCCn5ccnc5)CC4)cc3c2CC(F)(F)F)cc1OC [Example 331, 1-(4-(2-(3,4-dimethoxyphenyl)-3-(2,2,2-trifluoroethyl)-1H-indol-5-yl)piperidin-1-yl)-4-(1H-imidazol-1-yl)butan-1-one] | 0.221 µM | 5.23 µM |
| COc1ccc(-c2[nH]c3ccc(C4CCN(C(=O)CCN5CCCCC5)CC4)cc3c2CC(F)(F)F)cc1OC [Example 330, 1-(4-(2-(3,4-dimethoxyphenyl)-3-(2,2,2-trifluoroethyl)-1H-indol-5-yl)piperidin-1-yl)-3-(piperidin-1-yl)propan-1-one] | 0.084 µM | 1.61 µM |
| CCN1CCCC(N2CCC(c3ccc4[nH]c(-c5ccc(OC)c(OC)c5)c(C)c4c3)CC2)C1 (centres unmarked) [Example 24, 2-(3,4-dimethoxyphenyl)-5-(1′-ethyl-[1,3′-bipiperidin]-4-yl)-3-methyl-1H-indole] | 27.9 µM | 17.5 µM |
| COc1ccc(-c2[nH]c3ccc(C4CCN(CC(=O)NCCc5ccc(S(N)(=O)=O)cc5)CC4)cc3c2CC(F)(F)F)cc1OC [Example 384, 2-(4-(2-(3,4-dimethoxyphenyl)-3-(2,2,2-trifluoroethyl)-1H-indol-5-yl)piperidin-1-yl)-N-(4-sulfamoylphenethyl)acetamide] | 0.081 µM | 2.31 µM |
| COc1ccc(-c2[nH]c3ccc(C4CCN(C(=O)Cc5c[nH]c6ccccc56)CC4)cc3c2CC(F)(F)F)cc1OC [Example 332, 1-(4-(2-(3,4-dimethoxyphenyl)-3-(2,2,2-trifluoroethyl)-1H-indol-5-yl)piperidin-1-yl)-2-(1H-indol-3-yl)ethan-1-one] | 4.11 µM | ≥ 50 µM |
| COc1ccc(-c2[nH]c3ccc(C4CCN(CC(=O)NCC#N)CC4)cc3c2CC(F)(F)F)cc1OC [Example 381, N-(cyanomethyl)-2-(4-(2-(3,4-dimethoxyphenyl)-3-(2,2,2-trifluoroethyl)-1H-indol-5-yl)piperidin-1-yl)acetamide] | 0.076 µM | 5.91 µM |
| COc1ccc(-c2[nH]c3ccc(C4CCN(C(=O)CCC(F)(F)F)CC4)cc3c2CC(F)(F)F)cc1OC [Example 350, 1-(4-(2-(3,4-dimethoxyphenyl)-3-(2,2,2-trifluoroethyl)-1H-indol-5-yl)piperidin-1-yl)-4,4,4-trifluorobutan-1-one] | 2.05 µM | ≥ 50 µM |
| COc1ccc(-c2[nH]c3ccc(C4CCN(CC(=O)NCCNC(C)=O)CC4)cc3c2CC(F)(F)F)cc1OC [Example 379, N-(2-acetamidoethyl)-2-(4-(2-(3,4-dimethoxyphenyl)-3-(2,2,2-trifluoroethyl)-1H-indol-5-yl)piperidin-1-yl)acetamide] | 0.039 µM | 4.23 µM |
